Literature values, collected in patent US20120232274A1, “PROCESS FOR PREPARATION OF CLOPIODOGREL BISULFATE FORM-1” (PHARMAZELL GMBH, priority 2009, published 2012).

Columns and labels:
[1] = Form 2 compared with Form 1 of Clopidogrel bisulfate
[2] = Form 2 compared with Form 1 of Clopidogrel bisulfate; remark: listed apart in the source

COC(=O)[C@H](c1ccccc1Cl)N1CCc2sccc2C1 [Form 2, Clopidogrel bisulfate]
solubility [1]: lower solubility than Form 1
thermodynamic stability [2]: greater thermodynamic stability
